Test results as given in patent publication US20250034147A1, “MDM2 DEGRADERS AND USES THEREOF” (Kymera Therapeutics, Inc., priority 2021, published 2025).
pIC50: −log10 of the molar value.

Legend:
[1] = biological target: T1, HiBiT-tagged MDM2 (Homo sapiens, UniProt Q00987); experiment: MDM2 HiBit HEK293T degradation; format: cell-based; conditions: HEK293T cells stably expressing C-terminally HiBiT-tagged MDM2; 4 h; read-out: MDM2 HiBit HEK293T degradation 4 h: Average external-Abs DC50
T1 construct: expressed in transfected cells
Method: HEK293T cells were grown overnight to 70-80% confluency in a 6-well plate in complete media (DMEM 10% FBS) in a 37° C. incubator with 5% CO2. Cells were transfected with 1 micrograms of C- or N-terminally HiBiT-tagged MDM2 constructs using Fugene 6 transfection reagent (Promega) as per manufacturer protocol. After overnight incubation at 37° C., growth media within the wells was replaced with selection media (DMEM+10% FBS+1 microgram/ml final concentration of Puromycin). Puromycin (selection antibiotic) concentrations required for complete cell kill were determined previously. Cells were monitored for the next 48h-96h to select for positively transfected cells. Surviving colonies were pooled and expanded in selection media. Expanded pools of HEK293T cells stably expressing C- and N-terminally HiBiT-tagged MDM2, were characterized using a MDM2 tool degrader and HaloPROTAC3 as positive control. HEK293T cells expressing C-terminally HiBiT-tagged MDM2 were subsequently used for assessment of degradation potencies for MDM2 degraders.
The letter codes for MDM2 degradation potency (DC50) include: A (<10 nM), B […], C (>100-1000 nM), and D (>1000 nM).

[2] = tested on: RS411 cells; experiment: Cell Viability CTG Assay; format: cell-based; conditions: Homo sapiens, RS4-11, CellTiter Glo (CTG) cell viability, read-out: Average external-IC50
Method: Compounds or DMSO 60 nL were stamped to the cell plate as the platemap. RS411 cells were centrifuged at 800 rpm for 5 min, suspended with culture medium, and counted with Countess (Invitrogen). The cell density was adjusted to the recommend information. 30 μL of cell solution (1000 cells/well) was added to the assay plate as the platemap and 30 μL of media was added to column 2 and column 23 as the platemap. The plate was spun down briefly. The final concentration of the compounds started at 10 μM (3 fold dilution and 11 doses) and final DMSO concentration was 0.2%. The plate was spun down briefly and incubated at 37° C., 5% CO2 for 1 day. […] 30 μL CellTiter Glo reagent was added to each well and the plate was centrifuged at 1000 rpm for 30 sec. The plate was shaken for 1 min and centrifuged at 1000 rpm for 30 sec. The plate was incubated at RT for 10 min to stabilize the luminescent signal and the luminescence was read by EnVision.
The letter codes for IC50 indicate the concentration of compound required to affect 50% of cells: A (<0.005 μM), B (0.005-0.05 μM), C (0.05-0.5 μM), and D (>0.5 μM).

T1 sequence (Q00987 whole entry): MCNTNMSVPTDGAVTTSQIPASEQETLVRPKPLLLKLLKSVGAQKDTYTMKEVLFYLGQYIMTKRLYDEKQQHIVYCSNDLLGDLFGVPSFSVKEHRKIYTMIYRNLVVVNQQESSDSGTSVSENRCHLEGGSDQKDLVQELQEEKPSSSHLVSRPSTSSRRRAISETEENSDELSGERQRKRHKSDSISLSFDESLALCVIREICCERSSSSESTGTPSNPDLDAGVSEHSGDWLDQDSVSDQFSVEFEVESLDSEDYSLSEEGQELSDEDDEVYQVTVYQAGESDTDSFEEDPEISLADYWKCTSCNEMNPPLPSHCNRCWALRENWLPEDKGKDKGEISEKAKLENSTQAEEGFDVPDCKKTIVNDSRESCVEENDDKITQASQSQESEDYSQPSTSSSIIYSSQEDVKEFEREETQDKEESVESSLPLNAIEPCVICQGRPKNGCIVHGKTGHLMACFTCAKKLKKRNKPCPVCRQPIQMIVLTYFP

Row | Compound | DC50 [1] [µM] | pIC50 [2]
1 | Cn1c(=O)n([C@H]2CCC(=O)NC2=O)c2ccc(C3CCN(C(=O)[C@H]4CC[C@H](NC(=O)[C@@H]5NC6(CCCCC6)[C@@]6(C(=O)Nc7cc(Cl)ccc76)[C@H]5c5cccc(Cl)c5F)CC4)CC3)cc21 (single isomer, unassigned) [I-103] | < 0.01 | > 8.30
2 | Cn1c(=O)n([C@@H]2CCC(=O)NC2=O)c2ccc(C3CCN(C(=O)[C@H]4CC[C@H](NC(=O)[C@@H]5NC6(CCCCC6)[C@@]6(C(=O)Nc7cc(Cl)ccc76)[C@H]5c5cccc(Cl)c5F)CC4)CC3)cc21 (single isomer, unassigned) [I-104] | < 0.01 | > 8.30
3 | CN1CCN(C[C@H]2CC[C@H](NC(=O)[C@@H]3NC4(CCCCC4)[C@@]4(C(=O)Nc5cc(Cl)ccc54)[C@H]3c3cccc(Cl)c3F)CC2)C[C@H]1CCc1ccc2c(c1)n(C)c(=O)n2C1CCC(=O)NC1=O (stereo partly drawn) [I-1] | < 0.01 | > 8.30
4 | COc1cc2c(cc1OC(C)C)[C@H](c1ccc(Cl)cc1)N(c1ccc(N(C)CC3CCN(CCCCc4ccc5c(c4)n(C)c(=O)n5C4CCC(=O)NC4=O)CC3)cc1)C(=O)C2 (stereo partly drawn) [I-4] | 0.01 to 0.1 | > 8.30
5 | Cn1c(=O)n(C2CCC(=O)NC2=O)c2ccc(C3=CCN(C[C@H]4CC[C@H](NC(=O)[C@@H]5NC6(CCCCC6)[C@@]6(C(=O)Nc7cc(Cl)ccc76)[C@H]5c5cccc(Cl)c5F)CC4)CC3)cc21 (stereo partly drawn) [I-5] | < 0.01 | > 8.30
6 | COc1cc2c(cc1OC(C)C)[C@H](c1ccc(Cl)cc1)N(c1ccc(N(C)C[C@H]3CC[C@H](N(CCS(C)(=O)=O)C(=O)CCCCc4ccc5c(c4)n(C)c(=O)n5C4CCC(=O)NC4=O)CC3)cc1)C(=O)C2 (stereo partly drawn) [I-6] | 0.01 to 0.1 | > 8.30
7 | CC1(C)CCC2(CC1)NC(C(=O)N[C@H]1CC[C@H](CN3CCN(CCC#Cc4ccn5c(N6CCC(=O)NC6=O)cnc5c4)CC3)CC1)[C@H](c1ccnc(Cl)c1F)[C@]21C(=O)Nc2cc(Cl)ccc21 (stereo partly drawn) [I-7] | < 0.01 | 7.30 to 8.30
8 | Cn1c(=O)n(C2CCC(=O)NC2=O)c2ccc(C#CCC3(C(=O)O)CCN(C[C@H]4CC[C@H](NC(=O)[C@@H]5NC6(CCCCC6)[C@@]6(C(=O)Nc7cc(Cl)ccc76)[C@H]5c5cccc(Cl)c5F)CC4)CC3)cc21 (stereo partly drawn) [I-8] | < 0.01 | 7.30 to 8.30
9 | CC(C)[C@@H](CS(=O)(=O)C(C)C)N1C(=O)[C@@](C)(CC(=O)Nc2ccc(C(=O)N3CCN(CCCc4ccc5c(c4)n(C)c(=O)n5C4CCC(=O)NC4=O)CC3)cc2)C[C@H](c2cccc(Cl)c2)[C@H]1c1ccc(Cl)cc1 (stereo partly drawn) [I-9] | 0.01 to 0.1 | 7.30 to 8.30
10 | Cn1c(=O)n(C2CCC(=O)NC2=O)c2ccc(CN3CCC(OC4CCN(Cc5ccc(NC(=O)[C@@H]6NC7(CCCCC7)[C@@]7(C(=O)Nc8cc(Cl)ccc87)[C@H]6c6cccc(Cl)c6F)cc5)CC4)CC3)cc21 (stereo partly drawn) [I-10] | < 0.01 | > 8.30
11 | Cn1c(=O)n(C2CCC(=O)NC2=O)c2ccc(CC[C@H]3CN(C[C@H]4CC[C@H](NC(=O)[C@@H]5NC6(CCCCC6)[C@@]6(C(=O)Nc7cc(Cl)ccc76)[C@H]5c5cccc(Cl)c5F)CC4)CCO3)cc21 (stereo partly drawn) [I-11] | < 0.01 | > 8.30
12 | COc1cc2c(cc1OC(C)C)[C@H](c1ccc(Cl)cc1)N(c1ccc(N(C)C[C@H]3CC[C@H](N(CCC(=O)O)C(=O)CCCCc4ccc5c(c4)n(C)c(=O)n5C4CCC(=O)NC4=O)CC3)cc1)C(=O)C2 (stereo partly drawn) [I-12] | 0.1 to 1 | < 6.30
13 | CN1CCN(C[C@H]2CC[C@H](NC(=O)[C@@H]3NC4(CCCCC4)[C@@]4(C(=O)Nc5cc(Cl)ccc54)[C@H]3c3cccc(Cl)c3F)CC2)C[C@@H]1CCc1ccc2c(c1)n(C)c(=O)n2C1CCC(=O)NC1=O (stereo partly drawn) [I-13] | < 0.01 | > 8.30
14 | CN1[C@@H](C(=O)N[C@H]2CC[C@H](CN3CCC(c4ccc5c(c4)n(C)c(=O)n5C4CCC(=O)NC4=O)CC3)CC2)[C@H](c2ccnc(Cl)c2F)[C@]2(C(=O)Nc3cc(Cl)ccc32)C12CCC(C)(C)CC2 (stereo partly drawn) [I-14] | < 0.01 | > 8.30
15 | Cn1c(=O)n(C2CCC(=O)NC2=O)c2ccc(N3CCN(CC4CCN(C(=O)[C@H]5CC[C@H](NC(=O)[C@@H]6NC7(CCCCC7)[C@@]7(C(=O)Nc8cc(Cl)ccc87)[C@H]6c6cccc(Cl)c6F)CC5)CC4)CC3)cc21 (stereo partly drawn) [I-15] | < 0.01 | > 8.30
16 | Cn1c(=O)n(C2CCC(=O)NC2=O)c2ccc(N3CC4(CCN(C[C@H]5CC[C@H](NC(=O)[C@@H]6NC7(CCCCC7)[C@@]7(C(=O)Nc8cc(Cl)ccc87)[C@H]6c6cccc(Cl)c6F)CC5)CC4)C3)cc21 (stereo partly drawn) [I-16] | < 0.01 | > 8.30
17 | CN1[C@@H](C(=O)N[C@H]2CC[C@H](CN3CCC(c4ccc5c(c4)n(C)c(=O)n5C4CCC(=O)NC4=O)CC3)CC2)[C@H](c2cccc(Cl)c2F)[C@]2(C(=O)Nc3cc(Cl)ccc32)C12CCCCC2 (stereo partly drawn) [I-17] | < 0.01 | > 8.30
18 | Cn1c(=O)n(C2CCC(=O)NC2=O)c2ccc(N3CCC(OC4CCN(C[C@H]5CC[C@H](NC(=O)[C@@H]6NC7(CCCCC7)[C@@]7(C(=O)Nc8cc(Cl)ccc87)[C@H]6c6cccc(Cl)c6F)CC5)CC4)CC3)cc21 (stereo partly drawn) [I-18] | < 0.01 | > 8.30
19 | Cn1c(=O)n(C2CCC(=O)NC2=O)c2ccc(N3CC(N4CCN(C(=O)[C@H]5CC[C@H](NC(=O)[C@@H]6NC7(CCCCC7)[C@@]7(C(=O)Nc8cc(Cl)ccc87)[C@H]6c6cccc(Cl)c6F)CC5)CC4)C3)cc21 (stereo partly drawn) [I-19] | < 0.01 | 7.30 to 8.30
20 | Cn1c(=O)n(C2CCC(=O)NC2=O)c2ccc(CCN3CCN(CCCN4CCC(NC(=O)[C@@H]5NC6(CCC(C)(C)CC6)[C@@]6(C(=O)Nc7cc(Cl)ccc76)[C@H]5c5ccnc(Cl)c5F)CC4)CC3)cc21 (stereo partly drawn) [I-20] | < 0.01 | > 8.30
21 | Cn1c(=O)n(C2CCC(=O)NC2=O)c2ccc(C#CC3CCN(C(=O)[C@@H]4CC[C@@H](NC(=O)[C@@H]5NC6(CCC(C)(C)CC6)[C@@]6(C(=O)Nc7cc(Cl)ccc76)[C@H]5c5cccc(Cl)c5F)CO4)CC3)cc21 (stereo partly drawn) [I-36] |  | > 8.30
22 | COc1cc2c(cc1OC(C)C)[C@H](c1ccc(Cl)cc1)N(c1ccc(N(C)CC3CCN(CCCc4ccc5c(c4)n(C)c(=O)n5C4CCC(=O)NC4=O)C(=O)C3)cc1)C(=O)C2 (stereo partly drawn) [I-68] |  | > 8.30
23 | Cn1c(=O)n(C2CCC(=O)NC2=O)c2ccc(C3(C(=O)O)CCN(C(=O)[C@H]4CC[C@H](NC(=O)[C@@H]5NC6(CCCCC6)C6(C(=O)Nc7cc(Cl)ccc76)[C@H]5c5cccc(Cl)c5F)CC4)CC3)cc21 (stereo partly drawn) [I-84, 1-((1R,4r)-4-((3′R,4′S,5′R)-6″-chloro-4′-(3-chloro-2-fluorophenyl)-2″-oxodispiro[cyclohexane-1,2′-pyrrolidine-3′,3″-indoline]-5′-carboxamido)cyclohexane-1-carbonyl)-4-(1-(2,6-dioxopiperidin-3-yl)-3-methyl-2-oxo-2,3-dihydro-1H-benzo[d]imidazol-5-yl)piperidine-4-carboxylic acid] |  | 6.30 to 7.30
24 | Cn1c(=O)n(C2CCC(=O)NC2=O)c2ccc(CCCS(=O)(=O)NC(=O)[C@H]3CC[C@H](NC(=O)[C@@H]4NC5(CCCCC5)[C@@]5(C(=O)Nc6cc(Cl)ccc65)[C@H]4c4cccc(Cl)c4F)CC3)cc21 (stereo partly drawn) [I-100] |  | 6.30 to 7.30
25 | CN1C(=O)CCC(n2c(=O)n(C)c3cc(C4CCN(C[C@H]5CC[C@H](NC(=O)[C@@H]6NC7(CCCCC7)[C@@]7(C(=O)Nc8cc(Cl)ccc87)[C@H]6c6cccc(Cl)c6F)CC5)CC4)ccc32)C1=O (stereo partly drawn) [I-101] |  | 7.30 to 8.30
26 | COC(=O)C1(c2ccc3c(c2)n(C)c(=O)n3C2CCC(=O)NC2=O)CCN(C(=O)[C@H]2CC[C@H](NC(=O)[C@@H]3NC4(CCCCC4)[C@@]4(C(=O)Nc5cc(Cl)ccc54)[C@H]3c3cccc(Cl)c3F)CC2)CC1 (stereo partly drawn) [I-102, methyl 1-((1R,4r)-4-((3′R,4′S,5′R)-6″-chloro-4′-(3-chloro-2-fluorophenyl)-2″-oxodispiro[cyclohexane-1,2′-pyrrolidine-3′,3″-indoline]-5′-carboxamido)cyclohexane-1-carbonyl)-4-(1-(2,6-dioxopiperidin-3-yl)-3-methyl-2-oxo-2,3-dihydro-1H-benzo[d]imidazol-5-yl)piperidine-4-carboxylate] |  | > 8.30
27 | Cn1c(=O)n(C2CCC(=O)NC2=O)c2ccc(CCCN3CCN(C[C@H]4CC[C@H](NC(=O)[C@@H]5NC6(CCCCC6)[C@@]6(C(=O)Nc7cc(Cl)ccc76)[C@H]5c5cccc(Cl)c5F)CC4)C[C@H]3C(=O)O)cc21 (stereo partly drawn) [I-229] | < 0.01 | 
28 | Cn1c(=O)n(C2CCC(=O)NC2=O)c2ccc(CCCN3CCN(C[C@H]4CC[C@H](NC(=O)[C@@H]5NC6(CCCCC6)[C@@]6(C(=O)Nc7cc(Cl)ccc76)[C@H]5c5cccc(Cl)c5F)CC4)C(P(=O)(O)O)C3)cc21 (stereo partly drawn) [I-235] | 0.01 to 0.1 | 
